This note sets out measurements from US9452986B2, “6-heteroaryloxy- or 6-aryloxy-quinoline-2-carboxamides and method of use” (AbbVie Inc., priority 2014, dated 2016).

Molecules are shown by their SMILES. Bounds are passed on as bounds.

Chain of recombinant human Nav1.7 (Q15858 whole entry): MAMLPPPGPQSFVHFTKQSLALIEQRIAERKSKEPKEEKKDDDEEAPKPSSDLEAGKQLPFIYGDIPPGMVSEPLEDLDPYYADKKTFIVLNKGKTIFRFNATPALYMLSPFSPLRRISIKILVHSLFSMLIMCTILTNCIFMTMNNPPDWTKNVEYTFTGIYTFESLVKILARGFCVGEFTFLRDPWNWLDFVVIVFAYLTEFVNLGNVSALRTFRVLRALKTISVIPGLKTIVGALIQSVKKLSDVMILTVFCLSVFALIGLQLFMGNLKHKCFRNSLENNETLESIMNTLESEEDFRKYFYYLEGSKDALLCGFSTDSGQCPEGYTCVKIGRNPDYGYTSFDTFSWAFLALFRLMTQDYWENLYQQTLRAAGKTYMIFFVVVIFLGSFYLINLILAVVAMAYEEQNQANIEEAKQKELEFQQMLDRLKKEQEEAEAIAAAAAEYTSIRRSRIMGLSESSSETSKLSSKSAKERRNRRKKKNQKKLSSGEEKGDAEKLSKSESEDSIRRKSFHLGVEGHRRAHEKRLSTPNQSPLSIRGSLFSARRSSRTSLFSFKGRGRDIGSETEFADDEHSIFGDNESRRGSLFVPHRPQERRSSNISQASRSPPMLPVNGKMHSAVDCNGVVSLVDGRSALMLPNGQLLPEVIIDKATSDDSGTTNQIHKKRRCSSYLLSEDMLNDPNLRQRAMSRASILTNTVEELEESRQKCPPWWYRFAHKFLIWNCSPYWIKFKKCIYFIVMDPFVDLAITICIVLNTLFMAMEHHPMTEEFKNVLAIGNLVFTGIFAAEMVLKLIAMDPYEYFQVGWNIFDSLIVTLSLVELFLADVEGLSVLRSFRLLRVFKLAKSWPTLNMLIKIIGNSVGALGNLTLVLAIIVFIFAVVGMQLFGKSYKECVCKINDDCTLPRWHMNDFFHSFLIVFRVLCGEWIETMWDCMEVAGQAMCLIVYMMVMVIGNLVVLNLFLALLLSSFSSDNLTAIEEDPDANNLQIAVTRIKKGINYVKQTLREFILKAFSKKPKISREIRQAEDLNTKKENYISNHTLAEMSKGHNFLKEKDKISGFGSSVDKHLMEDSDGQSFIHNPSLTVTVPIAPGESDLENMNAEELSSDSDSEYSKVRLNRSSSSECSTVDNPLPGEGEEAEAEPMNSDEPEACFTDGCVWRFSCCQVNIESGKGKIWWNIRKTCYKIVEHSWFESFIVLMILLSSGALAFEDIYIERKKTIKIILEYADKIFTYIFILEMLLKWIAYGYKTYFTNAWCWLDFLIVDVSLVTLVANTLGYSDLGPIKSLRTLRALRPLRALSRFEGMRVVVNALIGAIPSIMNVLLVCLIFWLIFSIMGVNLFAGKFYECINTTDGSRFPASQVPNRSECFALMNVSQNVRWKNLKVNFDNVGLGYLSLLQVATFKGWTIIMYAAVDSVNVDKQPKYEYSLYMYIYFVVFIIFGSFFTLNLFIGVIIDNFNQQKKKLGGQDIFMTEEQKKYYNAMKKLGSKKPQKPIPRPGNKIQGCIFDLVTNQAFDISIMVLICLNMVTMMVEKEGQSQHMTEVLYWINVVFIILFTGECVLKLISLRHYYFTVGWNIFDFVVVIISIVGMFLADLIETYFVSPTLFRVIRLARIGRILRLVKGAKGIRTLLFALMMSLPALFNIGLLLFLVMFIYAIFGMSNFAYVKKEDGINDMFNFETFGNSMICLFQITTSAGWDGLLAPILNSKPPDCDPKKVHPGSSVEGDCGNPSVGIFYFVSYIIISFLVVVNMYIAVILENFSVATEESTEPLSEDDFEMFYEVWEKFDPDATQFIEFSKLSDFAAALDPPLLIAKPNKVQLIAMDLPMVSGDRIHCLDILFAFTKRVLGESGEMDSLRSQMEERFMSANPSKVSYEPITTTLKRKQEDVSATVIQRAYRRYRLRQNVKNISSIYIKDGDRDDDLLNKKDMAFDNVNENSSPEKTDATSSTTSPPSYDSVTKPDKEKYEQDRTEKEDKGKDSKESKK

The first test concerns the target recombinant human Nav1.7 (Homo sapiens (Human), UniProt Q15858). Kind of test: FRET-based membrane potential assay, recombinant human sodium channel Nav1.7. The test is classed as cell-based. The settings on record: HEK293 cells stably expressing recombinant human Nav1.7; veratridine + scorpion venom depolarization; read-out: FRET-Membrane Potential Nav1.7 IC50. In outline:
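Channel activation used veratridine at its EC80, set by a dilution curve each experiment, together with Leiurus scorpion venom, added 3 min after compound. Membrane-potential ratio signals from FLIPR Tetra in HEPES-buffered HBSS were fitted to a four-parameter Hill equation for percent inhibition and IC50.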
Broadly, the IC50 is the concentration that gives 50% inhibition. In the case of `N#CC1CN(C(=O)c2ccc3cc(Oc4ccc(C(F)(F)F)cn4)ccc3n2)C1` [Example 367, 1-[(6-{[5-(trifluoromethyl)pyridin-2-yl]oxy}quinolin-2-yl)carbonyl]azetidine-3-carbonitrile], the IC50 turned out to be 2530 nM.
With `O=C(NCC1(O)CC1)c1ccc2cc(Oc3ccc(C(F)(F)F)cn3)ccc2n1` [Example 369, N-[(1-hydroxycyclopropyl)methyl]-6-{[5-(trifluoromethyl)pyridin-2-yl]oxy}quinoline-2-carboxamide], the half-maximal inhibitory concentration (IC50) came out at 15200 nM.
Still for that read-out and setting: then `O=C(NC1COCC1O)c1ccc2cc(Oc3ccc(C(F)(F)F)cn3)ccc2n1` (centres unmarked) [Example 371, N-(4-hydroxytetrahydrofuran-3-yl)-6-{[5-(trifluoromethyl)pyridin-2-yl]oxy}quinoline-2-carboxamide], with 1460 nM.
In the case of `N#Cc1cnc(Oc2ccc3nc(C(=O)N4CCNCC4)ccc3c2)cn1` [Example 372, 5-{[2-(piperazin-1-ylcarbonyl)quinolin-6-yl]oxy}pyrazine-2-carbonitrile], the IC50 was above 20000 nM.
For `O=C1CCN(C(=O)c2ccc3cc(Oc4ccc(C(F)(F)F)cn4)ccc3n2)CC1` [Example 375, 1-[(6-{[5-(trifluoromethyl)pyridin-2-yl]oxy}quinolin-2-yl)carbonyl]piperidin-4-one], the IC50 was 13200 nM.
For the compound `O=C(c1ccc2cc(Oc3ccc(C(F)(F)F)cn3)ccc2n1)N(C1CCOCC1)C1CCOCC1` [Example 376, N,N-di(tetrahydro-2H-pyran-4-yl)-6-{[5-(trifluoromethyl)pyridin-2-yl]oxy}quinoline-2-carboxamide], the IC50 is 3060 nM.
In the case of `O=C(c1ccc2cc(Oc3ccc(C(F)(F)F)cn3)ccc2n1)N1CCC(N2C[C@@H]3C[C@H]2CO3)CC1` [Example 377, {4-[(1S,4S)-2-oxa-5-azabicyclo[2.2.1]hept-5-yl]piperidin-1-yl}(6-{[5-(trifluoromethyl)pyridin-2-yl]oxy}quinolin-2-yl)methanone], the IC50 amounted to 3320 nM.
On the same count and under the same terms, then `O=C(c1ccc2cc(Oc3ccc(C(F)(F)F)cn3)ccc2n1)N1CCC(N2C[C@H]3C[C@@H]2CO3)CC1` [Example 378, {4-[(1R,4R)-2-oxa-5-azabicyclo[2.2.1]hept-5-yl]piperidin-1-yl}(6-{[5-(trifluoromethyl)pyridin-2-yl]oxy}quinolin-2-yl)methanone], with 2230 nM; and `COCCN(CCOC)C(=O)c1ccc2cc(Oc3ccc(C(F)(F)F)cn3)ccc2n1` [Example 379, N,N-bis(2-methoxyethyl)-6-{[5-(trifluoromethyl)pyridin-2-yl]oxy}quinoline-2-carboxamide], with 3390 nM.
The same measure, in the same setting: then `O=C(NC1(CO)CC1)c1ccc2cc(Oc3ccc(C(F)(F)F)cn3)ccc2n1` [Example 380, N-[1-(hydroxymethyl)cyclopropyl]-6-{[5-(trifluoromethyl)pyridin-2-yl]oxy}quinoline-2-carboxamide], with 3000 nM; and `O=C(c1ccc2cc(Oc3ccc(C(F)(F)F)cn3)ccc2n1)N1CCN(S(=O)(=O)C2CCOC2)CC1` (centres unmarked) [Example 381, [4-(tetrahydrofuran-3-ylsulfonyl)piperazin-1-yl](6-{[5-(trifluoromethyl)pyridin-2-yl]oxy}quinolin-2-yl)methanone], with 3410 nM.
As for `COC(=O)CS(=O)(=O)N1CCN(C(=O)c2ccc3cc(Oc4ccc(C(F)(F)F)cn4)ccc3n2)CC1` [Example 382, methyl ({4-[(6-{[5-(trifluoromethyl)pyridin-2-yl]oxy}quinolin-2-yl)carbonyl]piperazin-1-yl}sulfonyl)acetate], the IC50 is 1820 nM.
With `O=C(c1ccc2cc(Oc3ccc(C(F)(F)F)cn3)ccc2n1)N1CCN(S(=O)(=O)C2CCOCC2)CC1` [Example 383, [4-(tetrahydro-2H-pyran-4-ylsulfonyl)piperazin-1-yl](6-{[5-(trifluoromethyl)pyridin-2-yl]oxy}quinolin-2-yl)methanone], the IC50 is above 20000 nM.
Still for that read-out and setting: under `COCCn1cc(S(=O)(=O)N2CCN(C(=O)c3ccc4cc(Oc5ccc(C(F)(F)F)cn5)ccc4n3)CC2)cn1` [Example 384, (4-{[1-(2-methoxyethyl)-1H-pyrazol-4-yl]sulfonyl}piperazin-1-yl)(6-{[5-(trifluoromethyl)pyridin-2-yl]oxy}quinolin-2-yl)methanone] stands 1930 nM; under `O=C(c1ccc2cc(Oc3ccc(C(F)(F)F)cn3)ccc2n1)N1CCN(S(=O)(=O)CC2CCOC2)CC1` (centres unmarked) [Example 385, {4-[(tetrahydrofuran-3-ylmethyl)sulfonyl]piperazin-1-yl}(6-{[5-(trifluoromethyl)pyridin-2-yl]oxy}quinolin-2-yl)methanone], 2330 nM; under `O=C(c1ccc2cc(Oc3ccc(C(F)(F)F)cn3)ccc2n1)N1CCN(S(=O)(=O)C2CCS(=O)(=O)C2)CC1` (centres unmarked) [Example 386, {4[(1,1-dioxidotetrahydrothiophen-3-yl)sulfonyl]piperazin-1-yl}(6-{[5-(trifluoromethyl)pyridin-2-yl]oxy}quinolin-2-yl)methanone], above 20000 nM.
`Cn1cc(S(=O)(=O)N2CCN(C(=O)c3ccc4cc(Oc5ccc(C(F)(F)F)cn5)ccc4n3)CC2)cn1` [Example 387, {4-[(1-methyl-1H-pyrazol-4-yl)sulfonyl]piperazin-1-yl}(6-{[5-(trifluoromethyl)pyridin-2-yl]oxy}quinolin-2-yl)methanone]: the IC50 is 2480 nM.
For the compound `CC(=O)Nc1nc(C)c(S(=O)(=O)N2CCN(C(=O)c3ccc4cc(Oc5ccc(C(F)(F)F)cn5)ccc4n3)CC2)s1` [Example 388, N-[4-methyl-5-({4-[(6-{[5-(trifluoromethyl)pyridin-2-yl]oxy}quinolin-2-yl)carbonyl]piperazin-1-yl}sulfonyl)-1,3-thiazol-2-yl]acetamide], the IC50 was above 20000 nM.
On the same count and under the same terms, under `CC(=O)Nc1ncc(S(=O)(=O)N2CCN(C(=O)c3ccc4cc(Oc5ccc(C(F)(F)F)cn5)ccc4n3)CC2)s1` [Example 389, N-[5-({4-[(6-{[5-(trifluoromethyl)pyridin-2-yl]oxy}quinolin-2-yl)carbonyl]piperazin-1-yl}sulfonyl)-1,3-thiazol-2-yl]acetamide] stands 9220 nM.
Still for that read-out and setting: under `Cc1c(S(=O)(=O)N2CCN(C(=O)c3ccc4cc(Oc5ccc(C(F)(F)F)cn5)ccc4n3)CC2)cnn1C` [Example 390, {4-[(1,5-dimethyl-1H-pyrazol-4-yl)sulfonyl]piperazin-1-yl}(6-{[5-(trifluoromethyl)pyridin-2-yl]oxy}quinolin-2-yl)methanone] stands 2340 nM; under `O=C(NC[C@@H]1CCCO1)c1ccc2cc(Oc3ccc(C(F)(F)F)cn3)ccc2n1` [Example 394, N-[(2S)-tetrahydrofuran-2-ylmethyl]-6-{[5-(trifluoromethyl)pyridin-2-yl]oxy}quinoline-2-carboxamide], 443 nM.
For the compound `COC1CN(C(=O)c2ccc3cc(Oc4ccc(C(F)(F)F)cn4)ccc3n2)C1` [Example 396, (3-methoxyazetidin-1-yl)(6-{[5-(trifluoromethyl)pyridin-2-yl]oxy}quinolin-2-yl)methanone], the IC50 amounted to 1940 nM.
With `CO[C@H]1C[C@H](NC(=O)c2ccc3cc(Oc4ccc(C(F)(F)F)cn4)ccc3n2)C1` [Example 397, N-(trans-3-methoxycyclobutyl)-6-{[5-(trifluoromethyl)pyridin-2-yl]oxy}quinoline-2-carboxamide], the IC50 was 896 nM.
Still for that read-out and setting: under `CN(C(=O)c1ccc2cc(Oc3ccc(C(F)(F)F)cn3)ccc2n1)C1CS(=O)(=O)CC1O` (centres unmarked) [Example 398, N-(4-hydroxy-1,1-dioxidotetrahydrothiophen-3-yl)-N-methyl-6-{[5-(trifluoromethyl)pyridin-2-yl]oxy}quinoline-2-carboxamide] stands 6110 nM; under `O=C(NC1COC1)c1ccc2cc(Oc3ccc(C(F)(F)F)cn3)ccc2n1` [Example 399, N-(oxetan-3-yl)-6-{[5-(trifluoromethyl)pyridin-2-yl]oxy}quinoline-2-carboxamide], 375 nM; under `O=C(NC1CCSCC1)c1ccc2cc(Oc3ccc(C(F)(F)F)cn3)ccc2n1` [Example 400, N-(tetrahydro-2H-thiopyran-4-yl)-6-{[5-(trifluoromethyl)pyridin-2-yl]oxy}quinoline-2-carboxamide], 1220 nM.
Turning to `O=C(N[C@H]1CCC[C@H]1O)c1ccc2cc(Oc3ccc(C(F)(F)F)cn3)ccc2n1` [Example 401, N-[(1S,2R)-2-hydroxycyclopentyl]-6-{[5-(trifluoromethyl)pyridin-2-yl]oxy}quinoline-2-carboxamide], the IC50 came to 400 nM.
Take `NC(=O)C1CN(C(=O)c2ccc3cc(Oc4ccc(C(F)(F)F)cn4)ccc3n2)CCN1` (centres unmarked) [Example 402, 4-[(6-{[5-(trifluoromethyl)pyridin-2-yl]oxy}quinolin-2-yl)carbonyl]piperazine-2-carboxamide]: the IC50 came to 9070 nM.
The same measure, in the same setting: then `NC1CCN(C(=O)c2ccc3cc(Oc4ccc(C(F)(F)F)cn4)ccc3n2)CC1` [Example 403, (4-aminopiperidin-1-yl)(6-{[5-(trifluoromethyl)pyridin-2-yl]oxy}quinolin-2-yl)methanone], with 9670 nM.

The same test, now with this note: read-out: FRET-Membrane Potential Nav1.7 IC50.
In the case of `O=C1CN(C(=O)c2ccc3cc(Oc4ccc(C(F)(F)F)cn4)ccc3n2)C1` [Example 370, 1-[(6-{[5-(trifluoromethyl)pyridin-2-yl]oxy}quinolin-2-yl)carbonyl]azetidin-3-one], the IC50 was 3390 nM.
Same read-out and setting: then `COCCN(C)C(=O)c1ccc2cc(Oc3ccc(C(F)(F)F)cn3)ccc2n1` [Example 392, N-(2-methoxyethyl)-N-methyl-6-{[5-(trifluoromethyl)pyridin-2-yl]oxy}quinoline-2-carboxamide], with 7960 nM; and `O=C(c1ccc2cc(Oc3ccc(C(F)(F)F)cn3)ccc2n1)N1C[C@H](O)C[C@@H](O)C1` [Example 395, [(3R,5R)-3,5-dihydroxypiperidin-1-yl](6-{[5-(trifluoromethyl)pyridin-2-yl]oxy}quinolin-2-yl)methanone], with above 20000 nM.
